According to US20080021030A1, “Substituted Pyrazoles As Ppar Agonists” (priority 2003, published 2008):
Counter-ions that a name gives are not always drawn.

Experiments:
Assay in all cases: Transient transfection (transactivation) assay in CV-1 cells, GAL4-PPAR LBD chimera, SPAP reporter
Type in all cases: cell-based
[1] = target: T1, hPPAR alpha (Homo sapiens, UniProt Q07869); details: read-out: EC50 μM HPPARα
T1 construct: expressed in transfected cells; host or cells: CV-1 cells
T1 sequence (Q07869 239-466 limits assumed): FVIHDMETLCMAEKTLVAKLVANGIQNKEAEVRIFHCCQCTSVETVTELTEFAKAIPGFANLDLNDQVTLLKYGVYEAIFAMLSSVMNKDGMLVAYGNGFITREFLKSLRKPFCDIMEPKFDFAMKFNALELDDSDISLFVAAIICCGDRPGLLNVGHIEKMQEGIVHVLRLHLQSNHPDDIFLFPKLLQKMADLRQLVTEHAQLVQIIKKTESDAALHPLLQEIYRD
Source text: (§1) Compounds were screened for functional potency in transient transfection assays in CV-1 cells for their ability to activate the PPAR subtypes (transactivation assay). A previously established chimeric receptor system was utilized to allow comparison of the relative transcriptional activity of the receptor subtypes on the same target gene and to prevent endogenous receptor activation from complicating the interpretation of results. See, for example, Lehmann, J. M.; Moore, L. B.; Smith-Oliver, T. A.; Wilkison, W. O.; Willson, T. M.; Kliewer, S. A., An antidiabetic thiazolidinedione is a high affinity ligand for peroxisome proliferator-activated receptor gamma (PPARgamma), J. Biol. Chem., 270, 12953-6 (1995). The ligand binding domains for murine and human PPAR alpha, PPAR gamma, and PPAR delta were each fused to the yeast transcription factor GAL4 DNA binding domain. CV-1 cells were transiently transfected with expression vectors for the respective PPAR chimera along with a reporter construct containing five copies of the GAL4 DNA binding site driving expression of secreted placental alkaline phosphatase (SPAP) and beta-galactosidase. After 16 h, the medium was exchanged to DME medium supplemented with 10% delipidated fetal calf serum and the test compound at the appropriate concentration. After an additional 24 h, cell extracts were prepared and assayed for alkaline phosphatase and β-galactosidase activity. Alkaline phosphatase activity was corrected for transfection efficiency using the beta-galactosidase activity as an internal standard (see, for example, Kliewer, S. A., et. al. Cell 83, 813-819 (1995)). Rosiglitazone (BRL 49653) was used as a positive control in the hPPAR gamma assay. The positive control in the hPPAR alpha assays was 2-4-[2-(3-[4-fluorophenyl]-1-heptylureido)ethyl]-phenoxy-(2-methyl propionic acid (WO 97/36579). The positive control for PPAR delta assays was 2-{2-methyl-4-[({4-methyl-2-{trifluoromethyl)phenyl]-1,3-thiazol-5-yl}methyl)sulfanyl]phenoxy}acetic acid (WO 01/00603). The positive control was (5-{4-[2-(Methyl-pyridin-2-yl-amino)-ethoxy]-benzyl}-thiazolidine-2,4-dione (J. Med. Chem. 1994, 37(23), 3977), for PPAR gamma.
(§2) Activities in three hPPAR subtypes are reported in the table and are expressed in micromolar.

[2] = target: T2, hPPAR delta (Homo sapiens, UniProt Q03181); details: read-out: EC50 μM HPPARδ
T2 construct: expressed in transfected cells; host or cells: CV-1 cells
T2 sequence (Q03181 211-439 limits assumed): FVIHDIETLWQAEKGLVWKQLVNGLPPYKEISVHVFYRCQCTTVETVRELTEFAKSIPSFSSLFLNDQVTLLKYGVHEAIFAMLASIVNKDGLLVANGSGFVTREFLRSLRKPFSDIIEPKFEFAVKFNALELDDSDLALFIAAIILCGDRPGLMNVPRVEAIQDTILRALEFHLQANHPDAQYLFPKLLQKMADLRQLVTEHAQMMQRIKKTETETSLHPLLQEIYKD
Source text: as §1, §2

[3] = target: T3, hPPAR gamma (Homo sapiens, UniProt P37231); details: read-out: EC50 μM HPPARγ
T3 construct: expressed in transfected cells; host or cells: CV-1 cells
T3 sequence (P37231 238-503 limits assumed): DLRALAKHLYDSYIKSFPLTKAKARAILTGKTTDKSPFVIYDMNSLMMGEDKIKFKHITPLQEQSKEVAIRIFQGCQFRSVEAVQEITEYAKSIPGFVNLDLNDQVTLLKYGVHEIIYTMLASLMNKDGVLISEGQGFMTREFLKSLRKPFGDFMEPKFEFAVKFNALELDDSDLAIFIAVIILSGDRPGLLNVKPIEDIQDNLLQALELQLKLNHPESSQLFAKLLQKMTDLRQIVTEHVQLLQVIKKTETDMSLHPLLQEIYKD
Source text: Compounds were screened for functional potency in transient transfection assays in CV-1 cells for their ability to activate the PPAR subtypes (transactivation assay). A previously established chimeric receptor system was utilized to allow comparison of the relative transcriptional activity of the receptor subtypes on the same target gene and to prevent endogenous receptor activation from complicating the interpretation of results. […] The ligand binding domains for murine and human PPAR alpha, PPAR gamma, and PPAR delta were each fused to the yeast transcription factor GAL4 DNA binding domain. CV-1 cells were transiently transfected with expression vectors for the respective PPAR chimera along with a reporter construct containing five copies of the GAL4 DNA binding site driving expression of secreted placental alkaline phosphatase (SPAP) and beta-galactosidase. After 16 h, the medium was exchanged to DME medium supplemented with 10% delipidated fetal calf serum and the test compound at the appropriate concentration. After an additional 24 h, cell extracts were prepared and assayed for alkaline phosphatase and β-galactosidase activity.

SMILES	EC50 [1] [µM]	EC50 [2] [µM]	EC50 [3] [µM]
Cc1cc(CNC(=O)c2cc(-c3ccc(N4CCOCC4)cc3)nn2C)ccc1OC(C)(C)C(=O)O [Example 39, 2-methyl-2-[(2-methyl-4-{[({1-methyl-3-[4-(4-morpholinyl)phenyl]-1H-pyrazol-5-yl}carbonyl)amino]methyl}phenyl)oxy]propanoic acid]	1.06	> 25	1.04
Cc1cc(CNC(=O)c2cc(-c3cccc(N4CCCCC4)c3)n(C)n2)ccc1OC(C)(C)C(=O)O [Example 40, 2-methyl-2-[(2-methyl-4-{[({1-methyl-5-[3-(1-piperidinyl)phenyl]-1H-pyrazol-3-yl}carbonyl)amino]methyl}phenyl)oxy]propanoic acid]	0.293	5.59	0.187
Cc1cc(CNC(=O)c2cc(-c3cccc(N4CCCC4)c3)n(C)n2)ccc1OC(C)(C)C(=O)O [Example 41, 2-methyl-2-[(2-methyl-4-{[({1-methyl-5-[3-(1-pyrrolidinyl)phenyl]-1H-pyrazol-3-yl}carbonyl)amino]methyl}phenyl)oxy]propanoic acid]	0.504	> 25	0.151
Cc1cc(CNC(=O)c2cc(-c3cccc(N4CCCCC4)c3)nn2C)ccc1OC(C)(C)C(=O)O [Example 42, 2-methyl-2-{2-methyl-4-[({[1-methyl-3-(3-piperidin-1-ylphenyl)-1H-pyrazol-5-yl]carbonyl}amino)methyl]phenoxy}propanoic acid]	0.293	> 25	1.66
Cc1cc(CNC(=O)Cc2cc(-c3ccc(C(C)(C)C)cc3)nn2C)ccc1OC(C)(C)C(=O)O [Example 43, 2-[(4-{[({3-[4-(1,1-dimethylethyl)phenyl]-1-methyl-1H-pyrazol-5-yl}acetyl)amino]methyl}-2-methylphenyl)oxy]-2-methylpropanoic acid]	0.257	> 25	0.138
Cc1cc(CNC(=O)Cc2cc(-c3ccc(C(C)(C)C)cc3)n(C)n2)ccc1OC(C)(C)C(=O)O [Example 44, 2-[(4-{[({5-[4-(1,1-dimethylethyl)phenyl]-1-methyl-1H-pyrazol-3-yl}acetyl)amino]methyl}-2-methylphenyl)oxy]-2-methylpropanoic acid]	1.3	> 25	0.006
Cc1cc(CNC(=O)c2cc(-c3ccc(N4CCCCC4)cc3)nn2C)ccc1OC(C)(C)C(=O)O [Example 45]	0.836	> 25	0.049
Cc1cc(CNC(=O)c2cc(Cc3ccc(C(C)(C)C)cc3)nn2C)ccc1OC(C)(C)C(=O)O [Example 46, 2-{[4-({[(3-{[4-(1,1-dimethylethyl)phenyl]methyl}-1-methyl-1H-pyrazol-5-yl)carbonyl]amino}methyl)-2-methylphenyl]oxy}-2-methylpropanoic acid]	0.294	> 25	0.353
Cc1ccc(CNC(=O)c2cc(-c3ccc(C(C)(C)C)cc3)nn2CCc2ccccc2)cc1OC(C)(C)C(=O)O [Example 51, 2-({5-[({[3-[4-(1,1-dimethylethyl)phenyl]-1-(2-phenylethyl)-1H-pyrazol-5-yl]carbonyl}amino)methyl]-2-methylphenyl}oxy)-2-methylpropanoic acid]	0.3	> 25	0.14
Cc1cc(CNC(=O)c2cc(-c3ccc(C(C)(C)C)cc3)n(CCN3CCOCC3)n2)ccc1OC(C)(C)C(=O)O [Example 54, 2-[(4-{[({5-[4-(1,1-dimethylethyl)phenyl]-1-[2-(4-morpholinyl)ethyl]-1H-pyrazol-3-yl}carbonyl)amino]methyl}-2-methylphenyl)oxy]-2-methyl propanoic acid hydrochloride]	0.571	> 25	> 25
Cc1cc(CNC(=O)c2cc(-c3ccc(C(C)(C)C)cc3)nn2CCN2CCOCC2)ccc1OC(C)(C)C(=O)O [Example 55, 2-[(4-{[({3-[4-(1,1-dimethylethyl)phenyl]-1-[2-(4-morpholinyl)ethyl]-1H-pyrazol-5-yl}carbonyl)amino]methyl}-2-methylphenyl)oxy]-2-methyl propanoic acid]	0.444	> 25	0.748

These reach a lower EC50 [1]. Values come first.

EC50 [1] [µM]	EC50 [2] [µM]	EC50 [3] [µM]	SMILES
0.204	> 25	1.7	Cc1cc(CNC(=O)c2cc(-c3ccc(C(C)(C)C)cc3)n(Cc3ccccc3)n2)ccc1OC(C)(C)C(=O)O [Example 50, 2-({4-[({[5-[4-(1,1-dimethylethyl)phenyl]-1-(phenylmethyl)-1H-pyrazol-3-yl]carbonyl}amino)methyl]-2-methylphenyl}oxy)-2-methylpropanoic acid]
0.192	5.93	1.38	C=CCn1nc(-c2ccc(C(C)(C)C)cc2)cc1C(=O)NCc1ccc(OC(C)(C)C(=O)O)cc1 [Example 60, 2-({4-[({[3-[4-(1,1-dimethylethyl)phenyl]-1-(2-propen-1-yl)-1H-pyrazol-5-yl]carbonyl}amino)methyl]phenyl}oxy)-2-methylpropanoic acid]
0.115	2.42	0.147	Cc1cc(CNC(=O)c2cc(-c3ccc(C(C)(C)C)cc3)nn2Cc2ccccc2)ccc1OC(C)(C)C(=O)O [Example 61, 2-({4-[({[3-[4-(1,1-dimethylethyl)phenyl]-1-(phenylmethyl)-1H-pyrazol-5-yl]carbonyl}amino)methyl]-2-methylphenyl}oxy)-2-methylpropanoic acid]
0.093	> 25	0.026	Cc1cc(CNC(=O)c2cc(-c3ccc(-c4ccccc4C)cc3)n(C)n2)ccc1OC(C)(C)C(=O)O [Example 31, 2-methyl-2-(2-methyl-4-[({[1-methyl-5-(2′-methylbiphenyl-4-yl)-1H-pyrazol-3-yl]carbonyl}amino)methyl]phenoxy}propanoic acid]
0.044	1.15	0.059	C=CCn1nc(-c2ccc(C(C)(C)C)cc2)cc1C(=O)NCc1ccc(OC(C)(C)C(=O)O)c(C)c1 [Example 47, 2-({4-[({[3-[4-(1,1-dimethylethyl)phenyl]-1-(2-propen-1-yl)-1H-pyrazol-5-yl]carbonyl}amino)methyl]-2-methylphenyl}oxy)-2-methylpropanoic acid]
0.029	> 25	0.014	CCCCc1ccc(-c2cc(C(=O)NCc3ccc(OC(C)(C)C(=O)O)c(C)c3)nn2C)cc1 [Example 29, 2-((4-[({[5-(4-butylphenyl)-1-methyl-1H-pyrazol-3-yl]carbonyl}amino)methyl]-2-methylphenyl}oxy)-2-methylpropanoic acid]
